Experimental data: patent US10835614B2, “Poly(diol fumarates) and poly(diol fumarate-co-succinates)” (William Marsh Rice University, priority 2016, dated 2020)
≈ marks a conversion by molar mass, not a printed value.

What was measured:
Experiment in all cases: MIC, CLSI M38-A2 broth microdilution antifungal susceptibility testing
C. albicans Y4215 = format: cell-based; conditions: diols tested from 1024 μg/mL to 0.0625 μg/mL, triplicate; for MIC: Candida albicans, Y4215, read-out: minimum inhibitory concentration (MIC), C. albicans
Protocol: (§1) A. fumigatus Af293, C. albicans Y4215 and Rhiozpus oryzae R0969, all clinical isolates of pathogenic species, were used to determine the antifungal activity of three different terminal diols: 1,6-hexanediol; 1,8-octanediol; and 1,10-decanediol (all purchased from Sigma-Aldrich, St. Louis, Mo.). Briefly, minimum inhibitory concentration (MIC) was determined following the Clinical Laboratory & Standards Institute (CLSI) M38-A2 broth microdilution antifungal susceptibility testing method. […] The experiment was performed in triplicate for each species and each diol.

A. fumigatus Af293 = format: cell-based; conditions: diols tested from 1024 μg/mL to 0.0625 μg/mL, triplicate; for MIC: Aspergillus fumigatus, AF293, read-out: minimum inhibitory concentration (MIC), A. fumigatus
Protocol: as §1

Rhiozpus oryzae R0969 = format: cell-based, R. oryzae; conditions: diols tested from 1024 μg/mL to 0.0625 μg/mL, triplicate; for MIC: Rhizopus arrhizus, R0969, read-out: minimum inhibitory concentration (MIC), R. oryzae
Protocol: as §1

Structure (SMILES) | MIC (C. albicans Y4215) | minimum inhibitory concentration (MIC), C. albicans (C. albicans Y4215) | MIC (A. fumigatus Af293) | minimum inhibitory concentration (MIC), A. fumigatus (A. fumigatus Af293) | MIC (Rhiozpus oryzae R0969) | minimum inhibitory concentration (MIC), R. oryzae (Rhiozpus oryzae R0969)
OCCCCCCCCO [1,8-Octanediol, 1,8-octanediol] | ≥ 1020 µg/mL | did not demonstrate activity | ≥ 1020 µg/mL | did not demonstrate activity | ≥ 1020 µg/mL | did not demonstrate activity
OCCCCCCO [1,6-Hexanediol, 1,6-hexanediol] | ≥ 1020 µg/mL | did not demonstrate activity | ≥ 1020 µg/mL | did not demonstrate activity | ≥ 1020 µg/mL | did not demonstrate activity
OCCCCCCCCCCO [1,10-Decanediol, 1,10-decanediol] | ≥ 1020 µg/mL | – | 256 µg/mL (≈ 1.47 mM) | – | 1020 µg/mL (≈ 5.88 mM) | –
